According to patent US20260166159A1, “KRAS G12D DEGRADATION AGENT, AND PREPARATION METHOD AND USE THEREFOR” (LEADINGTAC PHARMACEUTICAL (SHAOXING) CO., LTD., priority 2022, published 2026):

What was measured:
[1] = target: T1, KRAS-G12D (Homo sapiens, UniProt P01116, G12D); assay: KRAS-G12D degradation assay (Western Blot), A-427 cells; assay type: cell-based; details: A427 cells, 24 h, class symbols; for Dmax: A-427
T1 construct: endogenous in cells; host or cells: A-427 (ATCC), AGS, AsPc-1, Panc 04.03
T1 sequence (P01116 1-188 isoform P01116-2 G12D): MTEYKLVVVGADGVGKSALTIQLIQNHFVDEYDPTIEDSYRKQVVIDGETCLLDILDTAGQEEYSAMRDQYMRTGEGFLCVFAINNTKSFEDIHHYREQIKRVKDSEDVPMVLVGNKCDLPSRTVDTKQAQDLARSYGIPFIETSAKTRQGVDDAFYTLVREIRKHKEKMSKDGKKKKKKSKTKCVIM
Outline: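 Each KRAS G12D mutant line (A-427, AGS, AsPc-1, Panc 04.03) was seeded at 5×10^5 cells/well and treated 24 h at 37 °C with 0.03–3000 nM compound (final DMSO 0.25%). KRAS in lysates was measured by Western blot, normalized to β-actin and compared with controls, giving DC50 and Dmax from curve fits.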

[2] = test system: KRAS G12D mutant human gastric cancer cell AGS; assay: 3D cell proliferation inhibition assay, AGS; assay type: cell-based; details: 168 h, 7 days, CTG, class symbols
Outline: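 Cells were seeded at 5×10^2 cells/well in low-adsorption plates with compound (10000–0.026 nM final, 0.2% DMSO) and grown for 7 days at 37 °C, 5% CO2. Viability was read by CTG luminescence after 60 min at room temperature. IC50 came from log concentration–inhibition curve fits, normalised to DMSO and medium-only controls.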

Row | Structure (SMILES) | DC50 [1] [nM] | Dmax [1] [%] | IC50 [2] [nM]
1 | CCc1cccc2cc(O)cc(-c3ncc4c(N5CC6CCC(C5)N6)nc(OCC5(CN6CCN(CCCC7CCN(C(=O)c8ccc(Cl)c(N9CCC(=O)NC9=O)c8)CC7)CC6)CC5)nc4c3F)c12 [Example 19, 1-(5-(4-(3-(4-((1-(((4-(3,8-diazabicyclo[3.2.1]octan-3-yl)-7-(8-ethyl-3-hydroxynaphthalen-1-yl)-8-fluoropyrido[4,3-d]pyrimidin-2-yl)oxy)methyl)cyclopropyl)methyl)piperazin-1-yl)propyl)piperidine-1-carbonyl)-2-chlorophenyl)dihydropyrimidine-2,4(1H,3H)-dione] | 50 to 100 | 80 to 100 | ≤ 50
2 | C#Cc1c(F)ccc2cc(O)cc(-c3ncc4c(N5CC6CCC(C5)N6)nc(OCC56CC(CN7CCN(CC8CCC9(CC8)CCN(C(=O)c8ccc(Cl)c(N%10CCC(=O)NC%10=O)c8)CC9)CC7)(C5)C6)nc4c3F)c12 [Example 33, 1-(5-(9-((4-((3-(((4-(3,8-diazabicyclo[3.2.1]octan-3-yl)-7-(8-ethynyl-7-fluoro-3-hydroxynaphthalen-1-yl)-8-fluoropyrido[4,3-d]pyrimidin-2-yl)oxy)methyl)bicyclo[1.1.1]pentan-1-yl)methyl)piperazin-1-yl)methyl)-3-azaspiro[5.5]undecane-3-carbonyl)-2-chlorophenyl)dihydropyrimidine-2,4(1H,3H)-dione] | ≤ 50 | 80 to 100 | ≤ 50
3 | C#Cc1c(F)ccc2cc(O)cc(-c3ncc4c(N5CC6CCC(C5)N6)nc(OCC5(CN6CCC(COCC7CCN(C(=O)c8ccc(Cl)c(N9CCC(=O)NC9=O)c8)CC7)CC6)CC5)nc4c3F)c12 [Example 13, 1-(5-(4-(((1-((1-(((4-(3,8-diazabicyclo[3.2.1]octan-3-yl)-7-(8-ethynyl-7-fluoro-3-hydroxynaphthalen-1-yl)-8-fluoropyrido[4,3-d]pyrimidin-2-yl)oxy)methyl)cyclopropyl)methyl)piperidin-4-yl)methoxy)methyl)piperidine-1-carbonyl)-2-chlorophenyl)dihydropyrimidine-2,4(1H,3H)-dione] | 50 to 100 | 50 to 80 | ≤ 50
4 | C#Cc1c(F)ccc2cc(O)cc(-c3ncc4c(N5CC6CCC(C5)N6)nc(OC[C@@H]5CCCN5CCC5CCC6(CC5)CCN(C(=O)c5ccc(Cl)c(N7CCC(=O)NC7=O)c5)CC6)nc4c3F)c12 [Example 32, 1-(5-(9-(2-((S)-2-(((4-(3,8-diazabicyclo[3.2.1]octan-3-yl)-7-(8-ethynyl-7-fluoro-3-hydroxynaphthalen-1-yl)-8-fluoropyrido[4,3-d]pyrimidin-2-yl)oxy)methyl)pyrrolidin-1-yl)ethyl)-3-azaspiro[5.5]undecane-3-carbonyl)-2-chlorophenyl)dihydropyrimidine-2,4(1H,3H)-dione] | 1000 to 10000 | < 30 | 1000 to 10000
5 | C#Cc1c(F)ccc2cc(O)cc(-c3ncc4c(N5CC6CCC(C5)N6)nc(OCC5(CN6CCN(CC7CCC8(CC7)CCN(C(=O)c7ccc(OC)c(N9CCC(=O)NC9=O)c7)CC8)CC6)CC5)nc4c3F)c12 [Example 14, 1-(5-(9-((4-((1-(((4-(3,8-diazabicyclo[3.2.1]octan-3-yl)-7-(8-ethynyl-7-fluoro-3-hydroxynaphthalen-1-yl)-8-fluoropyrido[4,3-d]pyrimidin-2-yl)oxy)methyl)cyclopropyl)methyl)piperazin-1-yl)methyl)-3-azaspiro[5.5]undecane-3-carbonyl)-2-methoxyphenyl)dihydropyrimidine-2,4(1H,3H)-dione] | ≤ 50 | 80 to 100 | ≤ 50
6 | C#Cc1c(F)ccc2cc(O)cc(-c3ncc4c(N5CC6CCC(C5)N6)nc(OCC5(CN6CCN(CC7CCC8(CC7)CCN(C(=O)c7ccc(C)c(N9CCC(=O)NC9=O)c7)CC8)CC6)CC5)nc4c3F)c12 [Example 36, 1-(5-(9-((4-((1-(((4-(3,8-diazabicyclo[3.2.1]octan-3-yl)-7-(8-ethynyl-7-fluoro-3-hydroxynaphthalen-1-yl)-8-fluoropyrido[4,3-d]pyrimidin-2-yl)oxy)methyl)cyclopropyl)methyl)piperazin-1-yl)methyl)-3-azaspiro[5.5]undecane-3-carbonyl)-2-methylphenyl)dihydropyrimidine-2,4(1H,3H)-dione] | ≤ 50 | 80 to 100 | ≤ 50
7 | C#Cc1c(F)ccc2cc(O)cc(-c3ncc4c(N5CC6CCC(C5)N6)nc(OCC5(CN6CCN(CCCC7CCN(C(=O)c8ccc(OC)c(N9CCC(=O)NC9=O)c8)CC7)CC6)CC5)nc4c3F)c12 [Example 8, 1-(5-(4-(3-(4-((1-(((4-(3,8-diazabicyclo[3.2.1]octan-3-yl)-7-(8-ethynyl-7-fluoro-3-hydroxynaphthalen-1-yl)-8-fluoropyrido[4,3-d]pyrimidin-2-yl)oxy)methyl)cyclopropyl)methyl)piperazin-1-yl)propyl)piperidine-1-carbonyl)-2-methoxyphenyl)dihydropyrimidine-2,4(1H,3H)-dione] | ≤ 50 | 50 to 80 | ≤ 50
8 | C#Cc1c(F)ccc2cc(O)cc(-c3ccc4c(N5CC6CCC(C5)N6)nc(OCC5(CN6CCN(CC7CCC8(CC7)CCN(C(=O)c7ccc(C)c(N9CCC(=O)NC9=O)c7)CC8)CC6)CC5)nc4c3F)c12 [Example 42, 1-(5-(9-((4-((1-(((4-(3,8-diazabicyclo[3.2.1]octan-3-yl)-7-(8-ethynyl-7-fluoro-3-hydroxynaphthalen-1-yl)-8-fluoroquinazolin-2-yl)oxy)methyl)cyclopropyl)methyl)piperazin-1-yl)methyl)-3-azaspiro[5.5]undecane-3-carbonyl)-2-methylphenyl)dihydropyrimidine-2,4(1H,3H)-dione] | ≤ 50 | 80 to 100 | ≤ 50
9 | CCc1cccc2cc(O)cc(-c3ncc4c(N5CC6CCC(C5)N6)nc(OCC5(CN6CCN(CC7CCC8(CC7)CCN(C(=O)c7ccc(OC)c(N9CCC(=O)NC9=O)c7)CC8)CC6)CC5)nc4c3F)c12 [Example 20, 1-(5-(9-((4-((1-(((4-(3,8-diazabicyclo[3.2.1]octan-3-yl)-7-(8-ethyl-3-hydroxynaphthalen-1-yl)-8-fluoropyrido[4,3-d]pyrimidin-2-yl)oxy)methyl)cyclopropyl)methyl)piperazin-1-yl)methyl)-3-azaspiro[5.5]undecane-3-carbonyl)-2-methoxyphenyl)dihydropyrimidine-2,4(1H,3H)-dione] | ≤ 50 | 80 to 100 | ≤ 50
10 | C#Cc1c(F)ccc2cc(O)cc(-c3ncc4c(N5CC6CCC(C5)N6)nc(OCC5(CN6CCN(CC7CCC8(CC7)CCN(C(=O)c7ccc(Br)c(N9CCC(=O)NC9=O)c7)CC8)CC6)CC5)nc4c3F)c12 [Example 29, 1-(5-(9-((4-((1-(((4-(3,8-diazabicyclo[3.2.1]octan-3-yl)-7-(8-ethynyl-7-fluoro-3-hydroxynaphthalen-1-yl)-8-fluoropyrido[4,3-d]pyrimidin-2-yl)oxy)methyl)cyclopropyl)methyl)piperazin-1-yl)methyl)-3-azaspiro[5.5]undecane-3-carbonyl)-2-bromophenyl)dihydropyrimidine-2,4(1H,3H)-dione] | ≤ 50 | 80 to 100 | ≤ 50
11 | CCc1c(F)ccc2cc(O)cc(-c3ncc4c(N5CC6CCC(C5)N6)nc(OCC5(CN6CCN(CC7CCC8(CC7)CCN(C(=O)c7ccc(OC)c(N9CCC(=O)NC9=O)c7)CC8)CC6)CC5)nc4c3F)c12 [Example 15, 1-(5-(9-((4-((1-(((4-(3,8-diazabicyclo[3.2.1]octan-3-yl)-7-(8-ethyl-7-fluoro-3-hydroxynaphthalen-1-yl)-8-fluoropyrido[4,3-d]pyrimidin-2-yl)oxy)methyl)cyclopropyl)methyl)piperazin-1-yl)methyl)-3-azaspiro[5.5]undecane-3-carbonyl)-2-methoxyphenyl)dihydropyrimidine-2,4(1H,3H)-dione] | ≤ 50 | 80 to 100 | ≤ 50
12 | C#Cc1c(F)ccc2cc(O)cc(-c3ncc4c(N5CC6CCC(C5)N6)nc(OCC5(CN6CCN(CCCCC7CCC8(CC7)CCN(C(=O)c7ccc(Cl)c(N9CCC(=O)NC9=O)c7)CC8)CC6)CC5)nc4c3F)c12 [Example 31, 1-(5-(9-(4-(4-((1-(((4-(3,8-diazabicyclo[3.2.1]octan-3-yl)-7-(8-ethynyl-7-fluoro-3-hydroxynaphthalen-1-yl)-8-fluoropyrido[4,3-d]pyrimidin-2-yl)oxy)methyl)cyclopropyl)methyl)piperazin-1-yl)butyl)-3-azaspiro[5.5]undecane-3-carbonyl)-2-chlorophenyl)dihydropyrimidine-2,4(1H,3H)-dione] | ≤ 50 | 80 to 100 | ≤ 50
13 | C#Cc1c(F)ccc2cc(O)cc(-c3ncc4c(N5CC6CCC(C5)N6)nc(OCC(C)(C)CN5CCN(CC6CCC7(CC6)CCN(C(=O)c6ccc(OC)c(N8CCC(=O)NC8=O)c6)CC7)CC5)nc4c3F)c12 [Example 26, 1-(5-(9-((4-(3-((4-(3,8-diazabicyclo[3.2.1]octan-3-yl)-7-(8-ethynyl-7-fluoro-3-hydroxynaphthalen-1-yl)-8-fluoropyrido[4,3-d]pyrimidin-2-yl)oxy)-2,2-dimethylpropyl)piperazin-1-yl)methyl)-3-azaspiro[5.5]undecane-3-carbonyl)-2-methoxyphenyl)dihydropyrimidine-2,4(1H,3H)-dione] | 1000 to 10000 | 30 to 50 | 50 to 100
